# According to patent US11261187B2, “Compounds and methods for targeting HSP90” (Duke University, priority 2016, dated 2022):
# Assays:
# [1] = Absorbance and emission maxima of near IR fluorescent probes (Table 1); format: physicochemical
# eHsp90 = experiment: Competition of fluorescent probe binding to eHsp90 on cells by untethered Hsp90 inhibitors; format: cell-based; conditions: for blocking of binding of 100 and HS-27 to eHsp90: untethered Hsp90 inhibitors
# Experimental: Cells were plated on uncoated 18-mm round coverslips in 12 well plates at 150,000 cells/well and were allowed to adhere overnight. 100, in a stock solution in DMSO, was diluted in serum-free/phenol red-free DMEM. […] The coverslips were washed and mounted onto microscope slides using FluorSave mounting reagent (Millipore, Darmstadt, Germany). Slides were imaged on a Leica SP5 confocal microscope.
# (§1) Images were analyzed for fluorescence and puncta using ImageJ software using a non-biased, high-throughput macro. In brief, cells were selected using an expanded selection from the DAPI channel. The regions of interest were then masked, a watershed filter was applied to split adjacent cells into separate cells, and the regions of interest were applied to the 100 channel to measure fluorescence and puncta. High resolution confocal stacks were deconvolved with Hyugen's Deconvolution Software or AiryScan.
# (§2) To analyze the internalization of eHsp90 in transformed cells, the 4T1 cell model was utilized.
# MDA-MB-468 cells = experiment: 100 internalization assay in MDA-MB-468 cells; format: cell-based
# Experimental: Cells were plated on uncoated 18-mm round coverslips in 12 well plates at 150,000 cells/well and were allowed to adhere overnight. 100, in a stock solution in DMSO, was diluted in serum-free/phenol red-free DMEM. After drug incubation, the cells were washed twice with ice-cold PBS, fixed with 1% PFA in PBS for 10 min, and stained with 5 μg/mL wheat germ agglutinin-488 (WGA-488, Invitrogen, Waltham, Mass.) and either Hoescht or DAPI. The coverslips were washed and mounted onto microscope slides using FluorSave mounting reagent (Millipore, Darmstadt, Germany). Slides were imaged on a Leica SP5 confocal microscope.
# as §1, §2
# MDA-MB-468 flank tumors = experiment: Whole mouse 3D cryo-imaging of probe biodistribution, MDA-MB-468 flank xenograft; format: in vivo
# Experimental: All protocols involving the use of mice were approved beforehand by the IACUC at Duke University and were strictly adhered to throughout the studies. A wild-type 3-month-old male SCID mouse with a right flank xenograft with MDA-MB-468 cells was injected with 25 nmol 100 through the tail vein. Six hours later, the mouse was euthanized, prepared according to the instructions from BioInVision, Inc. (Cleveland, Ohio, USA) and shipped for Cryo-Imaging and reconstruction. An EGFP/mCherry dual band filter set was used for imaging (#59022; Chroma Technology Corporation, Bellows Falls, Vt., USA).
# The majority of cells are fully differentiated and not actively dividing, whereas some subpopulations of cells are constantly undergoing division and growth, such as the […] layer lining the intestinal tract. To determine if non-tumor cells express/internalize eHsp90, 3D cyrosectioning of mice bearing MDA-MB-468 flank tumors 6 hours post 100 injection was carried out. Probe uptake into the tumor in the live animal was first confirmed in a Licor instrument.
# (§3) Whereas fluorophore-tethered probes are useful for detecting and following uptake of tumors on the skin surface in live animals, even with the most sensitive of far red or nIR detectors, due to light scattering, detection of emitted fluorescent light is limited to a depth of few mm of tissue. However, when used in conjunction with live imaging, 3D cryosectioning enables the biodistribution of fluorescent probes to the histological level throughout the body. Following sacrifice the animal was cryopreserved in liquid N2, then longitudinal cryosectioned at 40-μm slices. Each slice was imaged for fluorescence with an mCherry band filter (excitation 550-590 nm, emission 600-670 nm) as well as bright field (all slice image data can be down loaded at https://goo.gl/Z30dXJ). The images were reconstructed to create a 3D fluorescence and bright field images of the entire mouse anatomy (FIG. 4a). This process allowed for the first time a detailed examination of the complete biodistribution of 100 at the histological level in every organ. A control non-treated mouse was also imaged using an EGFP-mCherry dual band filter set. The limits of detection of 100 by fluorescence are estimated to be at <1-2 μmol. In a parallel study, an MS analysis was conducted on specific fluorescent tissues to confirm the presence of 100 parent ion (m/z=660.0 [M+2]2+).
# [2] = MS analysis of tissues and urine for 100 parent ion after injection; format: in vivo, mouse
# Description: as §3
Abs. Max [1],Em. Max [1],SMILES,blocking of binding of 100 and HS-27 to eHsp90 (eHsp90),also measured
766,796,"Cc1nn(-c2ccc(C(N)=O)c(NCCCOCCOCCOCCOCCOCCCNCc3ccc(C4=C(/C=C/C5=[N+](CCCCS(=O)(=O)[O-])c6ccccc6C5(C)C)CCC/C4=C\C=C4\N(CCCCS(=O)(=O)O)c5ccccc5C4(C)C)cc3)c2)c2c1C(=O)CC(C)(C)C2 [Compound 105, 4-(2-((E)-2-((E)-4′-(21-((2-carbamoyl-5-(3,6,6-trimethyl-4-oxo-4,5,6,7-tetrahydro-1H-indazol-1-yl)phenyl)amino)-6,9,12,15,18-pentaoxa-2-azahenicosyl)-6-(2-((E)-3,3-dimethyl-1-(4-sulfobutyl)indolin-2-ylidene)ethylidene)-3,4,5,6-tetrahydro-[1,1′-biphenyl]-2-yl)vinyl)-3,3-dimethyl-3H-indol-1-ium-1-yl)butane-1-sulfonate]",–,–
803,828,Cc1nn(-c2ccc(C(N)=O)c(NCCCOCCOCCOCCOCCOCCCNCc3ccc(C4=C(/C=C/C5=[N+](CCCCS(=O)(=O)[O-])c6ccc7ccccc7c6C5(C)C)CCC/C4=C\C=C4\N(CCCCS(=O)(=O)O)c5ccc6ccccc6c5C4(C)C)cc3)c2)c2c1C(=O)CC(C)(C)C2 [Compound 111],–,–
766,795,"Cc1nn(-c2ccc(C(N)=O)c(NCCCOCCOCCOCCOCCOCCCNC(=O)c3ccc(C4=C(/C=C/C5=[N+](CCCCS(=O)(=O)[O-])c6ccccc6C5(C)C)CCC/C4=C\C=C4\N(CCCCS(=O)(=O)O)c5ccccc5C4(C)C)cc3)c2)c2c1C(=O)CC(C)(C)C2 [Compound 106, 4-(2-((E)-2-((E)-4′-((19-((2-carbamoyl-5-(3,6,6-trimethyl-4-oxo-4,5,6,7-tetrahydro-1H-indazol-1-yl)phenyl)amino)-4,7,10,13,16-pentaoxanonadecyl)carbamoyl)-6-(2-((E)-3,3-dimethyl-1-(4-sulfobutyl)indolin-2-ylidene)ethylidene)-3,4,5,6-tetrahydro-[1,1′-biphenyl]-2-yl)vinyl)-3,3-dimethyl-3H-indol-1-ium-1-yl)butane-1-sulfonate]",–,–
803,829,Cc1nn(-c2ccc(C(N)=O)c(NCCCOCCOCCOCCOCCOCCCNC(=O)c3ccc(C4=C(/C=C/C5=[N+](CCCCS(=O)(=O)[O-])c6ccc7ccccc7c6C5(C)C)CCC/C4=C\C=C4\N(CCCCS(=O)(=O)O)c5ccc6ccccc6c5C4(C)C)cc3)c2)c2c1C(=O)CC(C)(C)C2 [Compound 112],–,–
775,802,"Cc1nn(-c2ccc(C(N)=O)c(NCCCOCCOCCOCCOCCOCCCNCc3ccc(C4=C(/C=C/C5=[N+](CCCCS(=O)(=O)[O-])c6ccc(S(=O)(=O)O)cc6C5(C)C)CCC/C4=C\C=C4\N(CCCCS(=O)(=O)O)c5ccc(S(=O)(=O)O)cc5C4(C)C)cc3)c2)c2c1C(=O)CC(C)(C)C2 [Compound 108, 4-(2-((E)-2-((E)-4′-(21-((2-carbamoyl-5-(3,6,6-trimethyl-4-oxo-4,5,6,7-tetrahydro-1H-indazol-1-yl)phenyl)amino)-6,9,12,15,18-pentaoxa-2-azahenicosyl)-6-(2-((E)-3,3-dimethyl-5-sulfo-1-(4-sulfobutyl)indolin-2-ylidene)ethylidene)-3,4,5,6-tetrahydro-[1,1′-biphenyl]-2-yl)vinyl)-3,3-dimethyl-5-sulfo-3H-indol-1-ium-1-yl)butane-1-sulfonate]",–,–

# Continued, compound first:
SMILES,Abs. Max [1],Em. Max [1],blocking of binding of 100 and HS-27 to eHsp90 (eHsp90),also measured
CC(C)c1cc(-c2n[nH]c(=O)n2-c2ccc3c(ccn3C)c2)c(O)cc1O [Ganetespib],–,–,blocked,–
"Cc1nn(-c2ccc(C(N)=O)c(NCCCOCCOCCOCCOCCOCCCNCc3ccc(C(=C\C=C4\N(CCCCS(=O)(=O)O)c5ccccc5C4(C)C)/C=C/C4=[N+](CCCCS(=O)(=O)[O-])c5ccccc5C4(C)C)cc3)c2)c2c1C(=O)CC(C)(C)C2 [Compound 100, 4-(2-((1E,3Z)-3-(4-(21-((2-carbamoyl-5-(3,6,6-trimethyl-4-oxo-4,5,6,7-tetrahydro-1H-indazol-1-yl)phenyl)amino)-6,9,12,15,18-pentaoxa-2-azahenicosyl)phenyl)-5-((Z)-3,3-dimethyl-1-(4-sulfobutyl)indolin-2-ylidene)penta-1,3-dien-1-yl)-3,3-dimethyl-3H-indol-1-ium-1-yl)butane-1-sulfonate]",–,–,–,"cell permeability (MDA-MB-468 cells): not cell permeable; clearance from vasculature (MDA-MB-468 flank tumors; 6 hour time point): cleared from the entire vasculature by the 6 hour time point; probe related fluorescence in major organs (heart, lungs, liver, kidney, spleen, brain, skeletal muscle, stomach, skin, thyroid, prostate, fur) (MDA-MB-468 flank tumors; 6 hour time point): completely devoid of 100 related fluorescence; probe in gut wall or endothelial lining of upper intestine (MDA-MB-468 flank tumors; 6 hours post injection, 25 nmol tail vein): no evidence of 100 in the gut wall or endothelial lining; uptake in skeletal structures, bone marrow, spinal and synovial fluid (MDA-MB-468 flank tumors; 6 hours, confirmed by MS analysis): No uptake; uptake into lymph nodes (MDA-MB-468 flank tumors; SCID mouse, 6 hours): uptake of 100 into the lymph nodes; MS detection of parent ion in intestines ([2]; 6 hr post-drug injection): did not show the presence of the parent 100 ion; concentration of intact parent molecule in tumor ([2]; MS analysis of flank tumor): ~325 nM (w.w.); concentration at 6 h ([2]; SCID, mouse, other: injection, MS analysis of urine, 6 hours): ~50 nM; MS detection of parent ion in eyes ([2]; mouse, in vivo): did not show evidence of the 100 parent ion; route of elimination ([2]; mouse, in vivo): primarily eliminated intact through the kidney"
"Cc1nn(-c2ccc(C(N)=O)c(NCCCOCCOCCOCCOCCOCCCNC(=O)c3ccc(C(=C\C=C4\N(CCCCS(=O)(=O)O)c5ccccc5C4(C)C)/C=C/C4=[N+](CCCCS(=O)(=O)[O-])c5ccccc5C4(C)C)cc3)c2)c2c1C(=O)CC(C)(C)C2 [Compound 102, 4-(2-((1E,3Z)-3-(4-((19-((2-carbamoyl-5-(3,6,6-trimethyl-4-oxo-4,5,6,7-tetrahydro-1H-indazol-1-yl)phenyl)amino)-4,7,10,13,16-pentaoxanonadecyl)-carbamoyl)phenyl)-5-((E)-3,3-dimethyl-1-(4-sulfobutyl)indolin-2-ylidene)penta-1,3-dien-1-yl)-3,3-dimethyl-3H-indol-1-ium-1-yl)butane-1-sulfonate]",643,670,–,–
CC1(C)CC(=O)c2c(C(F)(F)F)nn(-c3ccc(C(N)=O)c(N[C@H]4CC[C@H](O)CC4)c3)c2C1 [SNX2112],–,–,blocked,–
CC(C)NCCCn1c(Sc2cc3c(cc2I)OCO3)nc2c(N)ncnc21 [PUH71],–,–,blocked,"competition of binding of probe 100 to eHsp90 (eHsp90; MDA-MB-468 cells, 100 at 25 μM, 45 min, 1 μM HS-10 or 10 μM PUH71): competed"
